Reference: patent publication US4820694A, “Modifications of 3-O-demethylmycinose in macrocin and lactenocin” (priority 1986, dated 1989)
≈ marks a conversion by molar mass, not a printed value. Like-named read-outs stand apart in the source and are kept apart here.

Columns and labels:
[1] = tested on: Mycoplasma hyorhinis 29E; test: broth-dilution microtiter MIC test; type: cell-based; conditions: Mycoplasma, 29E
Protocol: (§1) The MIC's in Table III were determined by standard agar-dilution assays. The MIC's in Table IV were obtained using conventional brothdilution microtiter tests.

[2] = tested on: Pasteurella multocida 17E; test: broth-dilution microtiter MIC test; type: cell-based; conditions: Pasteurella multocida, 17E
Protocol: as §1

[3] = tested on: Pasteurella hemolytica 23C; test: broth-dilution microtiter MIC test; type: cell-based; conditions: Pasteurella, 23C
Protocol: as §1

[4] = tested on: Pasteurella multocida 40G; test: broth-dilution microtiter MIC test; type: cell-based; conditions: Pasteurella multocida, 40G
Protocol: as §1

[5] = tested on: Staphylococcus aureus 19C; test: broth-dilution microtiter MIC test; type: cell-based; conditions: Staphylococcus aureus, 19C
Protocol: as §1

[6] = tested on: Mycoplasma synoviae 40A; test: broth-dilution microtiter MIC test; type: cell-based; conditions: Mycoplasmopsis synoviae, 40A
Protocol: as §1

[7] = tested on: Mycoplasma gallisepticum 36H; test: broth-dilution microtiter MIC test; type: cell-based; conditions: Mycoplasmoides gallisepticum, 36H
Protocol: as §1

[8] = tested on: Mycoplasma gallisepticum 15E; test: broth-dilution microtiter MIC test; type: cell-based; conditions: Mycoplasmoides gallisepticum, 15E
Protocol: as §1

[9] = tested on: Pasteurella hemolytica 41D; test: broth-dilution microtiter MIC test; type: cell-based; conditions: Pasteurella, 41D
Protocol: as §1

[10] = tested on: Pasteurella hemolytica 22C; test: broth-dilution microtiter MIC test; type: cell-based; conditions: Pasteurella, 22C
Protocol: as §1

[11] = tested on: Mycoplasma gallisepticum 29C; test: broth-dilution microtiter MIC test; type: cell-based; conditions: Mycoplasmoides gallisepticum, 29C
Protocol: as §1

[12] = tested on: Pasteurella multocida 68C; test: broth-dilution microtiter MIC test; type: cell-based; conditions: Pasteurella multocida, 68C
Protocol: as §1

[13] = tested on: Pasteurella multocida 22A; test: broth-dilution microtiter MIC test; type: cell-based; conditions: Pasteurella multocida, 22A
Protocol: as §1

[14] = tested on: Pasteurella multocida 60A; test: broth-dilution microtiter MIC test; type: cell-based; conditions: Pasteurella multocida, 60A
Protocol: as §1

[15] = tested on: Bordetella bronchiseptica; test: broth-dilution microtiter MIC test; type: cell-based; conditions: Bordetella bronchiseptica
Protocol: as §1

[16] = tested on: Streptococcus sp. 19F; test: broth-dilution microtiter MIC test; type: cell-based; conditions: Streptococcus, SP.19F
Protocol: as §1

[17] = tested on: Pseudomonas aeruginosa X239; test: standard agar-dilution MIC assay; type: cell-based; conditions: Pseudomonas aeruginosa, X239
Protocol: as §1

[18] = tested on: Streptococcus Group D X66; test: standard agar-dilution MIC assay; type: cell-based; conditions: read-out: MIC
Protocol: as §1

[19] = tested on: Staphylococcus epidermidis EP12; test: standard agar-dilution MIC assay; type: cell-based
Protocol: as §1

[20] = tested on: Staphylococcus aureus X1.1; test: standard agar-dilution MIC assay; type: cell-based; conditions: Staphylococcus aureus, X1.1
Protocol: as §1

[21] = tested on: Escherichia coli EC14; test: standard agar-dilution MIC assay; type: cell-based
Protocol: as §1

[22] = tested on: Staphylococcus epidermidis EPI1; test: standard agar-dilution MIC assay; type: cell-based; conditions: Staphylococcus epidermidis, EPI1
Protocol: as §1

[23] = tested on: Klebsiella pneumoniae X68; test: standard agar-dilution MIC assay; type: cell-based; conditions: Klebsiella pneumoniae, X68
Protocol: as §1

[24] = tested on: Streptococcus pyogenes C203; test: standard agar-dilution MIC assay; type: cell-based; conditions: Streptococcus pyogenes, C203
Protocol: as §1

[25] = tested on: Staphylococcus aureus V41; test: standard agar-dilution MIC assay; type: cell-based; conditions: Staphylococcus aureus, V41
Protocol: as §1

[26] = tested on: Streptococcus Group D 9960; test: standard agar-dilution MIC assay; type: cell-based; conditions: GROUPD9960, read-out: MIC
Protocol: as §1

[27] = tested on: Staphylococcus aureus X400; test: standard agar-dilution MIC assay; type: cell-based; conditions: Staphylococcus aureus, X400
Protocol: as §1

[28] = tested on: Pasteurella multocida; test: Pasteurella multocida infection in one-day-old chicks; type: in vivo; conditions: subcutaneously, 30 mg/kg × 2, 1 and 4 hours post-challenge
Protocol: Some of the formula 1 compounds have also shown in vivo antibacterial activity against infections induced by Gram-negative bacteria. Table VI summarizes the results of tests in which illustrative compounds were evaluated against a Pasteurella infection in one-day-old chicks. The compounds were administered by subcutaneous injection at a dosage of 30 mg/kg, 1 and 4 hours post-challenge of the chicks with Pasteurella multocida (0.1 ml of a 10^-4 dilution of a twenty-hour tryptose broth culture of an avian P. multocida given subcutaneously). In these tests, unless indicated otherwise, all non-medicated infected chicks died within 24 hours of Pasteurella challenge.
^a Administered subcutaneously; 30 mg/kg × 2

[29] = tested on: Staphylococcus aureus S13E; test: microbe, parasite or virus in culture; type: cell-based; conditions: Staphylococcus aureus, S13E
Protocol: as §1

[30] = tested on: Streptococcus pneumoniae Park I; test: microbe, parasite or virus in culture; type: cell-based; conditions: Streptococcus pneumoniae
Protocol: as §1

[31] = tested on: Streptococcus pyogenes C203; test: protection of mice experimentally infected with S. pyogenes C203; type: in vivo; conditions: C203, sc, Subcutaneous, mice, mg/kg × 2, doses given 1 and 4 hours postinfection, read-out: ED50
Procedure, shortened: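 Activity is given as ED50, the mg/kg dose (×2) protecting half of the mice infected with S. pyogenes C203. Compound was dosed 1 and 4 h after infection.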

[32] = broth-dilution microtiter, read-out: MIC

SMILES	MIC [1]	MIC [2]	MIC [4]	MIC [5]	MIC [6]	MIC [7]	MIC [8]	MIC [11]	MIC [12]	MIC [13]	MIC [14]	MIC [16]	MIC [18]	MIC [19]	MIC [20]	MIC [22]	MIC [24]	MIC [25]	MIC [26]	MIC [27]	other results
CCC1OC(=O)CC(O)C(C)C(OC2OC(C)C(O)C(N(C)C)C2OC(C)=O)C(CC=O)CC(C)C(=O)C=CC(C)=CC1COC1OC(C)C(OC(C)=O)C(O)C1OC (centres unmarked) [Compound 21, 2',4"-Di-O-acetyl-lactenocin]	6.25 µg/mL (≈ 7.42 µM)	12.5 µg/mL (≈ 14.8 µM)	12.5 µg/mL (≈ 14.8 µM)	3.12 µg/mL (≈ 3.71 µM)	3.12 µg/mL (≈ 3.71 µM)	50 µg/mL (≈ 59.4 µM)	50 µg/mL (≈ 59.4 µM)	3.12 µg/mL (≈ 3.71 µM)	12.5 µg/mL (≈ 14.8 µM)	12.5 µg/mL (≈ 14.8 µM)	12.5 µg/mL (≈ 14.8 µM)	1.56 µg/mL (≈ 1.85 µM)	4 µg/mL (≈ 4.75 µM)	4 µg/mL (≈ 4.75 µM)	2 µg/mL (≈ 2.38 µM)	2 µg/mL (≈ 2.38 µM)	1 µg/mL (≈ 1.19 µM)	4 µg/mL (≈ 4.75 µM)	4 µg/mL (≈ 4.75 µM)	8 µg/mL (≈ 9.5 µM)	MIC [3]: 50 µg/mL (≈ 59.4 µM); MIC [9]: 50 µg/mL (≈ 59.4 µM); MIC [10]: 50 µg/mL (≈ 59.4 µM); MIC [15, 32]: > 50 µg/mL; MIC ([17]; agar-dilution, read-out: MIC): > 128 µg/mL; MIC ([21]; agar-dilution, read-out: MIC): > 128 µg/mL; MIC ([23]; agar-dilution, read-out: MIC): > 128 µg/mL; Number of Deaths/Number Treated [28]: 3/10; MIC [29]: 4 µg/mL (≈ 4.75 µM); MIC [30]: 1 µg/mL (≈ 1.19 µM); ED50 [31]: 5.5 mg/kg
CCC1OC(=O)CC(O)C(C)C(OC2OC(C)C(O)C(N(C)C)C2OC(C)=O)C(CC=O)CC(C)C(=O)C=CC(C)=CC1COC1OC(C)C(OC(C)=O)C(OC(C)=O)C1OC (centres unmarked) [Compound 23, 2',3",4"-Tri-O-acetyl-lactenocin]	12.5 µg/mL (≈ 14.1 µM)	25 µg/mL (≈ 28.3 µM)	50 µg/mL (≈ 56.6 µM)	6.25 µg/mL (≈ 7.07 µM)	6.25 µg/mL (≈ 7.07 µM)	50 µg/mL (≈ 56.6 µM)	50 µg/mL (≈ 56.6 µM)	1.56 µg/mL (≈ 1.76 µM)	25 µg/mL (≈ 28.3 µM)	50 µg/mL (≈ 56.6 µM)	50 µg/mL (≈ 56.6 µM)	1.56 µg/mL (≈ 1.76 µM)	8 µg/mL (≈ 9.05 µM)	2 µg/mL (≈ 2.26 µM)	2 µg/mL (≈ 2.26 µM)	2 µg/mL (≈ 2.26 µM)	2 µg/mL (≈ 2.26 µM)	2 µg/mL (≈ 2.26 µM)	4 µg/mL (≈ 4.52 µM)	4 µg/mL (≈ 4.52 µM)	MIC [3, 32]: > 50 µg/mL; MIC [9, 32]: > 50 µg/mL; MIC [10, 32]: > 50 µg/mL; MIC [15, 32]: > 50 µg/mL; MIC ([17]; agar-dilution, read-out: MIC): > 128 µg/mL; MIC ([21]; agar-dilution, read-out: MIC): > 128 µg/mL; MIC ([23]; agar-dilution, read-out: MIC): > 128 µg/mL; Number of Deaths/Number Treated [28]: 10/10; MIC [29]: 2 µg/mL (≈ 2.26 µM); MIC [30]: 2 µg/mL (≈ 2.26 µM); ED50 [31]: 6.8 mg/kg
CCC1OC(=O)CC(O)C(C)C(OC2OC(C)C(O)C(N(C)C)C2OC(C)=O)C(CC=O)CC(C)C(=O)C=CC(C)=CC1COC1OC(C)C(OC(=O)Cc2ccccc2)C(O)C1OC (centres unmarked) [Compound 29, 2'-O-Acetyl-4"-O-phenylacetyl-lactenocin]	1.56 µg/mL (≈ 1.7 µM)	12.5 µg/mL (≈ 13.6 µM)	25 µg/mL (≈ 27.2 µM)	1.56 µg/mL (≈ 1.7 µM)	0.195 µg/mL (≈ 0.212 µM)	6.25 µg/mL (≈ 6.81 µM)	12.5 µg/mL (≈ 13.6 µM)	0.195 µg/mL (≈ 0.212 µM)	6.25 µg/mL (≈ 6.81 µM)	25 µg/mL (≈ 27.2 µM)	25 µg/mL (≈ 27.2 µM)	0.39 µg/mL (≈ 0.425 µM)	1 µg/mL (≈ 1.09 µM)	1 µg/mL (≈ 1.09 µM)	1 µg/mL (≈ 1.09 µM)	1 µg/mL (≈ 1.09 µM)	0.5 µg/mL (≈ 0.545 µM)	1 µg/mL (≈ 1.09 µM)	1 µg/mL (≈ 1.09 µM)	1 µg/mL (≈ 1.09 µM)	MIC [3]: 12.5 µg/mL (≈ 13.6 µM); MIC [9]: 12.5 µg/mL (≈ 13.6 µM); MIC [10]: 12.5 µg/mL (≈ 13.6 µM); MIC [15]: > 50 µg/mL; MIC [17]: > 128 µg/mL; MIC [21]: > 128 µg/mL; MIC [23]: > 128 µg/mL; Number of Deaths/Number Treated [28]: 9/10; MIC [29]: 1 µg/mL (≈ 1.09 µM); MIC [30]: 0.25 µg/mL (≈ 0.272 µM)
